Assay type in all cases: physicochemical
Data set [1] in a line: Particle size distribution by laser diffraction (Sympatec) after processing. Conditions: for D10 / D50 / D90: Compound A, PSD; for X10: micronized GP, sampled immediately after processing.
Data set [2] in a line: Residual solvent content by GC analysis. As to the method:
Residual solvent content of the material from different batches was also analyzed. […] Residual solvent is partially removed using primary (ethanol) and secondary (water) conditioning.
Compound A (IUPAC: 7-[(1R)-2-[2-[2-fluoro-5-[[4-(2-isopropylthiazole-4-carbonyl)-1-oxa-4,9-diazaspiro[5.5]undecan-9-yl]methyl]phenyl]ethylamino]-1-hydroxy-ethyl]-4-hydroxy-3H-1,3-benzothiazol-2-one; di[[(1S,4R)-7,7-dimethyl-2-oxo-norbornan-1-yl]methanesulfonic acid] salt) was received with a 3.8% ethanol residual content. This material had been previously micronized and conditioned according to the present description to reduce the presence of isopropyl (IPA) and ethanol (EtOH) by solvent exchange/removal. The material was exposed to another conditioning gas that included water vapor, and was mixed with the conditioning gas in a conditioning zone for approximately 1.5 hours.

Data set [3] is described as follows: Particle size distribution by laser diffraction (Sympatec) after processing. The settings on record: for X50 / X90: micronized GP, sampled immediately after processing; for D10 / D50 / D90: micronized/annealed GP, scale-up ~1 kg batches, mean of n=3 replicates per collector; for Physical stability after micronization judged from size distribution: laser diffraction, Tables 4 and 5. From the text: When referred to herein, the term “optical diameter” indicates the size of a particle as measured using a laser diffraction particle size analyzer equipped with a dry powder dispenser (e.g., Sympatec GmbH, Clausthal-Zellerfeld, Germany).
(§1) A portion of the micronized GP was also conditioned using an in-process conditioning system wherein nitrogen conditioning gas was supplied to the in-process conditioning system and was controlled for flow rate, temperature and humidity. The conditioning gas was humidified through a droplet evaporation chamber after which it was directed to a mixing zone. In the mixing zone, the conditioning gas was mixed with the jet-milled aerosol comprising the micronized GP. The aerosol then entered a conditioning zone where annealing of the micronized GP occurred. The particle residence time through the conditioning zone was adjusted by means of the conditioning zone chamber geometry and/or the gas flow rate through the conditioning zone chamber. After passing through the conditioning zone, the micronized GP particles reached the cyclone-collection zone where the solid particles were separated from the gas phase and transported to a collection vessel. Upon completion of the batch processing, the collector was disengaged and transferred to a glove box for sampling. The sampling occurred in a <5% relative humidity environment. Samples were then analyzed for particle size distribution and amorphous content.
Both micronized sucrose batches were analyzed for particle size distribution by Sympatec laser diffraction.

Data set [4] in a line: Amorphous content by (dynamic) vapor sorption. The settings on record: for % Amorphous Content Initial: micronized GP batches.
Text: as §1
The amorphous content by vapor sorption and particle morphology for both batches were also assessed. FIG. 9 provides the ethanol vapor sorption isotherm at 25° C. for both batches of micronized budesonide.
The amorphous content by vapor sorption and particle morphology for both batches were also assessed. FIG. 11 provides the ethanol vapor sorption isotherm at 25° C. for both batches of micronized fluticasone.
All batches were also analyzed for amorphous content by dynamic vapor sorption using n=2 replicates per collector.
The amorphous content by vapor sorption and particle morphology for both batches of micronized sucrose were also assessed. FIG. 13 provides the water vapor sorption isotherm at 25° C. for both batches of micronized sucrose.

Setting [5] is: Compound A batches of Example 6.
Setting [6] is: Compound A batches of Example 6, residual solvent.
[7] abbreviates: listed as Batch A - Collector 1.
Setting [8] is: listed as Batch A - Collector 2.
[9] abbreviates: conditioned GP, dynamic vapor sorption, n=2 replicates per collector.
The mark [10] stands for this setting: micronized Compound A of Example 7, before/after about […] with water-vapor conditioning gas.
Setting [11] is: Compound A batches of Example 6, residual solvent, listed as Compound A, Raw (un-milled).
[12] abbreviates: Compound A batches of Example 6, residual solvent, listed as Compound A, 30° C./55% RS, 30° C./70% RH.

Turning to “7-[(1R)-2-[2-[2-fluoro-5-[[4-(2-isopropylthiazole-4-carbonyl)-1-oxa-4,9-diazaspiro[5.5]undecan-9-yl]methyl]phenyl]ethylamino]-1-hydroxy-ethyl]-4-hydroxy-3H-1,3-benzothiazol-2-one; di[[(1S,4R)-7,7-dimethyl-2-oxo-norbornan-1-yl]methanesulfonic acid] salt [Compound A, Unannealed]”, in data set [1], the D10 was 0.6 μm, the D50 is listed as 1.6 μm and the D90 stood at 3.1 μm. Also, the “% Water” value in data set [2] (setting [5]) turned out to be 3.0%. For the same molecule, in data set [2] (setting [6]), the “% EtOH (w/w)” value is listed as 0.2% (w/w) and the “% IPA (w/w)” value is listed as 3.9% (w/w).
On to `C[N+]1(C)CCC(OC(=O)C(O)(c2ccccc2)C2CCCC2)C1` (stereo not shown) [Micronized GP, Standard Jet Milling, Glycopyrrolate], for which the X10 in data set [1] amounted to 0.5 μm. In data set [3], this molecule displayed an X50 of 1.4 μm and an X90 of 3.0 μm.
Take `C[N+]1(C)CCC(OC(=O)C(O)(c2ccccc2)C2CCCC2)C1` (stereo not shown) [Micronized GP, In-Process Conditioning, Glycopyrrolate]: the X10 in data set [1] is 0.6 μm. In data set [3], the X50 was 1.5 μm and the X90 is listed as 3.1 μm.
Consider `C[N+]1(C)CCC(OC(=O)C(O)(c2ccccc2)C2CCCC2)C1` (single isomer, unassigned) [Batch A, Glycopyrrolate], for which, in data set [3] (setting [7]), the D10 was 0.52 μm, the D50 is reported as 1.48 μm and the D90 amounted to 3.02 μm. In data set [3] (setting [8]), the D10 is recorded as 0.52 μm, the D50 is 1.47 μm and the D90 is given as 2.99 μm. For the same molecule, in data set [4] (setting [9]), the “Calculated Amorphous Content, Collector 1” value was 2.65% and the “Calculated Amorphous Content, Collector 2” value is on record as 2.35%.
With “7-[(1R)-2-[2-[2-fluoro-5-[[4-(2-isopropylthiazole-4-carbonyl)-1-oxa-4,9-diazaspiro[5.5]undecan-9-yl]methyl]phenyl]ethylamino]-1-hydroxy-ethyl]-4-hydroxy-3H-1,3-benzothiazol-2-one; di[[(1S,4R)-7,7-dimethyl-2-oxo-norbornan-1-yl]methanesulfonic acid] salt [Micronized Compound A, As Received]”, in data set [2] (setting [10]), the “% EtOH (w/w)” value was 3.8% (w/w), the “% IPA (w/w)” value is recorded as 0.1% (w/w) and the “% Water” value is listed as 3.1%.
Take `C[N+]1(C)CCC(OC(=O)C(O)(c2ccccc2)C2CCCC2)C1` (stereo not shown) [Batch 2D, Glycopyrrolate]: the “% Amorphous Content Initial” value in data set [4] came out at 0.9%.
Turning to “7-[(1R)-2-[2-[2-fluoro-5-[[4-(2-isopropylthiazole-4-carbonyl)-1-oxa-4,9-diazaspiro[5.5]undecan-9-yl]methyl]phenyl]ethylamino]-1-hydroxy-ethyl]-4-hydroxy-3H-1,3-benzothiazol-2-one; di[[(1S,4R)-7,7-dimethyl-2-oxo-norbornan-1-yl]methanesulfonic acid] salt [Micronized Compound A, 30° C./70% RH (water)]”, in data set [2] (setting [10]), the “% EtOH (w/w)” value is listed as 0.1% (w/w), the “% IPA (w/w)” value was 0.0% (w/w) and the “% Water” value turned out to be 3.6%.
As for “7-[(1R)-2-[2-[2-fluoro-5-[[4-(2-isopropylthiazole-4-carbonyl)-1-oxa-4,9-diazaspiro[5.5]undecan-9-yl]methyl]phenyl]ethylamino]-1-hydroxy-ethyl]-4-hydroxy-3H-1,3-benzothiazol-2-one; di[[(1S,4R)-7,7-dimethyl-2-oxo-norbornan-1-yl]methanesulfonic acid] salt [Compound A, 30° C./70% RH]”, in data set [1], the D10 worked out at 0.6 μm, the D50 worked out at 1.6 μm and the D90 is 3.1 μm. The “% Water” value in data set [2] (setting [5]) is recorded as 3.4%. Further, in data set [2] (setting [6]), the “% EtOH (w/w)” value is 0.1% (w/w) and the “% IPA (w/w)” value was 3.6% (w/w).
In data set [1], “7-[(1R)-2-[2-[2-fluoro-5-[[4-(2-isopropylthiazole-4-carbonyl)-1-oxa-4,9-diazaspiro[5.5]undecan-9-yl]methyl]phenyl]ethylamino]-1-hydroxy-ethyl]-4-hydroxy-3H-1,3-benzothiazol-2-one; di[[(1S,4R)-7,7-dimethyl-2-oxo-norbornan-1-yl]methanesulfonic acid] salt [Compound A, Raw (Un-milled)]” yielded a D10 of 1.1 μm, a D50 of 3.7 μm and a D90 of 16.3 μm. Also, in data set [2] (setting [11]), the “% EtOH (w/w)” value is listed as 0.0% (w/w) and the “% IPA (w/w)” value was 4.7% (w/w). Moreover, the “% Water” value in data set [2] (Compound A batches of Example 6, listed as Compound A, Raw (un-milled)) stood at 3.1%.
Take `CCCC1O[C@@H]2C[C@H]3[C@@H]4CCC5=CC(=O)C=C[C@]5(C)[C@H]4[C@@H](O)C[C@]3(C)[C@]2(C(=O)CO)O1` (stereo partly shown) [Micronized Budesonide, Batch 2 (annealed)]: the “Physical stability after micronization judged from size distribution” value in data set [3] is “good physical stability”.
With `C[N+]1(C)CCC(OC(=O)C(O)(c2ccccc2)C2CCCC2)C1` (stereo not shown) [Batch 2C, Glycopyrrolate], the “% Amorphous Content Initial” value in data set [4] worked out at 0.9%.
Take `CCCC1O[C@@H]2C[C@H]3[C@@H]4CCC5=CC(=O)C=C[C@]5(C)[C@H]4[C@@H](O)C[C@]3(C)[C@]2(C(=O)CO)O1` (stereo partly shown) [Micronized Budesonide, Batch 1 (unannealed)]: in data set [3], the “Physical stability after micronization judged from size distribution” value is given as “potential agglomeration”.
For the molecule “7-[(1R)-2-[2-[2-fluoro-5-[[4-(2-isopropylthiazole-4-carbonyl)-1-oxa-4,9-diazaspiro[5.5]undecan-9-yl]methyl]phenyl]ethylamino]-1-hydroxy-ethyl]-4-hydroxy-3H-1,3-benzothiazol-2-one; di[[(1S,4R)-7,7-dimethyl-2-oxo-norbornan-1-yl]methanesulfonic acid] salt [Compound A, 30° C./55% RS (ethanol); 30° C./70% RH (water)]”, in data set [1], the D10 is 0.6 μm, the D50 is reported as 1.7 μm and the D90 is 3.2 μm. Moreover, in data set [2] (setting [12]), the “% EtOH (w/w)” value is on record as 1.2% (w/w) and the “% IPA (w/w)” value is on record as 2.1% (w/w). In addition, the “% Water” value in data set [2] (Compound A batches of Example 6, listed as Compound A, 30° C./55% RS, 30° C./70% RH) was determined as 3.4%.
Regarding `C[N+]1(C)CCC(OC(=O)C(O)(c2ccccc2)C2CCCC2)C1` (stereo not shown) [Batch 2B, Glycopyrrolate], the “% Amorphous Content Initial” value in data set [4] was 5.3%.
The same measure, in the same setting: the value for `C[N+]1(C)CCC(OC(=O)C(O)(c2ccccc2)C2CCCC2)C1` (stereo not shown) [Batch 1A, Glycopyrrolate] was 17.9%; that for `C[N+]1(C)CCC(OC(=O)C(O)(c2ccccc2)C2CCCC2)C1` (stereo not shown) [Batch 2F, Glycopyrrolate] was 0.9%.
On to `C[N+]1(C)CCC(OC(=O)C(O)(c2ccccc2)C2CCCC2)C1` (stereo not shown) [Batch 2G, Glycopyrrolate], for which the “% Amorphous Content Initial” value in data set [4] was 2.3%.
On to “7-[(1R)-2-[2-[2-fluoro-5-[[4-(2-isopropylthiazole-4-carbonyl)-1-oxa-4,9-diazaspiro[5.5]undecan-9-yl]methyl]phenyl]ethylamino]-1-hydroxy-ethyl]-4-hydroxy-3H-1,3-benzothiazol-2-one; di[[(1S,4R)-7,7-dimethyl-2-oxo-norbornan-1-yl]methanesulfonic acid] salt [Compound A]”, for which the “Ethanol residual content as received” value in data set [2] (Compound A as received, Example 7) came to 3.8%. In addition, the “Residual isopropyl alcohol solvent after manufacture” value in data set [2] (Compound A before micronization, Example 6) is reported as about 5%.
Turning to `C[N+]1(C)CCC(OC(=O)C(O)(c2ccccc2)C2CCCC2)C1` (stereo not shown) [Batch 2E, Glycopyrrolate], the “% Amorphous Content Initial” value in data set [4] turned out to be 2.6%.

Values taken from US11471468B2, “Methods and systems for conditioning of particulate crystalline materials” (Pearl Therapeutics, Inc., priority 2013, dated 2022).
